According to PubChem BioAssay AID1963984 (Molecular Pharmacology Branch, DTP, NCI, 2024):

Tested on: 233499-124-R-J3-PDC spheroids with HUVEC/MSC, viability
Assay: Anticancer human tumor 233499-124-R-J3-PDC patient-derived colon adenocarcinoma cell line growth inhibition [PI3K]
Conditions: for IC50: curve of first compound; for viability, T/C: stronger effect = lower value
From the text: Combinatorial screen of targeted agents with the PI3K inhibitors inavolisib, alpelisib, duvelisib, and copanlisib in multi-cell type tumor spheroids
A high-throughput screen of multi-cell type tumor spheroids was designed to identify active combinations of targeted small molecules and PI3K pathway inhibitors. Complex spheroids include a stromal component modeled by human endothelial cells (HUVEC) and fibroblasts modeled by human mesenchymal stem cells (MSCs). The concentration ranges selected for each drug and investigational agent were based upon clinically achievable concentrations if the clinical Cmax of the agent was known.
Compounds. The drugs and investigational agents: inavolisib (NSC800729), alpelisib (NSC765974), duvelisib (NSC772469), copanlisib (NSC816437), ipatasertib (NSC767898), afuresertib (NSC778305), talazoparib (NSC767125), sapanisertib (NSC764658), selumetinib (NSC741078), tovorafenib (DAY101, NSC766906), vemurafenib (NSC761431), ravoxertinib (NSC781343), sotorasib (NSC818433), MRTX1133 (NSC 836407), abemaciclib (NSC 768073), palbociclib (NSC758247), venetoclax (NSC 766270), SY5609 (NSC837396), enzalutamide (NSC755605), and darolutamide (NSC825331), were obtained from the National Cancer Institute (NCI) Developmental Therapeutics Program Chemical Repository. The FDA-approved anticancer drug set is available from the NCI Developmental Therapeutics Program. […] The stock solutions were prepared in dimethyl sulfoxide (DMSO, Sigma-Aldrich, St. Louis, MO, cat. D2650) at 800-fold the tested concentration and stored at -70 degrees C prior to their use. All drugs and investigational agents were tested over a range starting from a high concentration at or near the clinical Cmax and decreasing in half-log increments. If the clinical Cmax for an agent had not been determined, the highest concentration tested was 10 microM.
Cell Culture. All cells were maintained in an incubator at 37 degrees C and 5% CO2 with 95% humidity. The PDC lines were cultured according to standard operating procedures established by the NCI PDMR (https://pdmr.cancer.gov/sops/default.htm). All PDCs were thawed and cultured in Matrigel-coated flasks prepared with a working solution of 1X Ham's F-12 nutrient mix, without supplementation (Invitrogen, Waltham, MA, cat. 11765054), 100 U/mL penicillin-streptomycin (Invitrogen, cat. 15140122), and 2.5% Matrigel (Corning Inc., Corning, NY, cat. 354248) for the first three passages. The 354836-022-R-J1-PDC, 475296-252-R-J1-PDC, and 997726-040-R-J2-PDC lines were cultured in 6A media, which includes advanced DMEM/F-12 (Thermo Fisher Scientific, cat. 12634028), 10 mM HEPES (Thermo Fisher Scientific, cat. 15630080), 1X GlutaMAX supplement (Thermo Fisher Scientific, cat. 35050061), 0.1 mg/mL primocin (InvivoGen, San Diego, CA, cat. ant-pm-2), 10% defined fetal bovine serum, heat inactivated (HyClone Laboratories Inc., Logan, UT, cat. SH30070.03HI), 50% L-WRN conditioned media (ATCC, cat. CRL-3276), 1.25 mM N-Acetyl-L-cysteine (Sigma-Aldrich, cat. A9165), 10 mM nicotinamide (Sigma-Aldrich, cat. N0636), 1X B-27 supplement (Thermo Fisher Scientific, cat. 17504044), 1X N-2 supplement (Thermo Fisher Scientific, cat. 17502048), and 10 microM Y-27632 dihydrochloride (Tocris Bioscience, Bristol, United Kingdom, cat. 1254). The 624824-186-R-J2-PDC line was cultured in 6C/Colon 1B media, which includes all 6A media components plus 50 ng/mL human EGF recombinant protein (Thermo Fisher Scientific, cat. PHG0311). […]

[1] = second compound 0.00316 µM, first compound 0.0316 µM
[2] = second compound 0.00316 µM, first compound 0.1 µM
[3] = second compound 0.00316 µM, first compound 0.316 µM
[4] = second compound 0.00316 µM, first compound 1 µM
[5] = second compound 0.00316 µM, first compound 3.16 µM
[6] = second compound 0.00316 µM, first compound 10 µM
[7] = second compound 0.01 µM, first compound 0.0316 µM
[8] = second compound 0.01 µM, first compound 0.1 µM
[9] = second compound 0.01 µM, first compound 0.316 µM
[10] = second compound 0.01 µM, first compound 1 µM
[11] = second compound 0.01 µM, first compound 3.16 µM
[12] = second compound 0.01 µM, first compound 10 µM
[13] = second compound 0.0316 µM, first compound 0.0316 µM
[14] = second compound 0.0316 µM, first compound 0.1 µM
[15] = second compound 0.0316 µM, first compound 0.316 µM
[16] = second compound 0.0316 µM, first compound 1 µM
[17] = second compound 0.0316 µM, first compound 3.16 µM
[18] = second compound 0.0316 µM, first compound 10 µM
[19] = second compound 0.1 µM, first compound 0.0316 µM
[20] = second compound 0.1 µM, first compound 0.1 µM
[21] = second compound 0.1 µM, first compound 0.316 µM
[22] = second compound 0.1 µM, first compound 1 µM
[23] = second compound 0.1 µM, first compound 3.16 µM
[24] = second compound 0.1 µM, first compound 10 µM
[25] = second compound 0.316 µM, first compound 0.0316 µM
[26] = second compound 0.316 µM, first compound 0.1 µM
[27] = second compound 0.316 µM, first compound 0.316 µM
[28] = second compound 0.316 µM, first compound 1 µM
[29] = second compound 0.316 µM, first compound 3.16 µM
[30] = second compound 0.316 µM, first compound 10 µM
[31] = second compound 1 µM, first compound 0.0316 µM
[32] = second compound 1 µM, first compound 0.1 µM
[33] = second compound 1 µM, first compound 0.316 µM
[34] = second compound 1 µM, first compound 1 µM
[35] = second compound 1 µM, first compound 3.16 µM
[36] = second compound 1 µM, first compound 10 µM
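Note: spheroids exposed to agents for seven days before readout.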
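Throughout, for viability, T/C: percent viability relative to DMSO vehicle control taken as 100%.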

SMILES: CC(C)NCC(C(=O)N1CCN(c2ncnc3c2C(C)CC3O)CC1)c1ccc(Cl)cc1 (stereo unspecified) + CC(Nc1ccc2c(c1)OCCn1cc(N3C(=O)OCC3C(F)F)nc1-2)C(N)=O
- IC50 (second compound 0.00316 µM): > 10000 nM
- IC50 (second compound 0.01 µM): > 10000 nM
- IC50 (second compound 0.0316 µM): > 10000 nM
- IC50 (second compound 0.1 µM): > 10000 nM
- IC50 (second compound 0.316 µM): > 10000 nM
- IC50 (second compound 1 µM): 7250 nM
- viability, T/C [1]: 53.2%
- viability, T/C [2]: 98.8%
- viability, T/C [3]: 74.7%
- viability, T/C [4]: 96%
- viability, T/C [5]: 94.2%
- viability, T/C [6]: 50.3%
- viability, T/C [7]: 96.7%
- viability, T/C [8]: 102%
- viability, T/C [9]: 94.8%
- viability, T/C [10]: 96.2%
- viability, T/C [11]: 86.1%
- viability, T/C [12]: 71.1%
- viability, T/C [13]: 89%
- viability, T/C [14]: 84.9%
- viability, T/C [15]: 89%
- viability, T/C [16]: 86.1%
- viability, T/C [17]: 81.2%
- viability, T/C [18]: 76.8%
- viability, T/C [19]: 87.7%
- viability, T/C [20]: 86.2%
- viability, T/C [21]: 77.3%
- viability, T/C [22]: 51.9%
- viability, T/C [23]: 80.8%
- viability, T/C [24]: 58.6%
- viability, T/C [25]: 72.2%
- viability, T/C [26]: 83.2%
- viability, T/C [27]: 69.7%
- viability, T/C [28]: 67.5%
- viability, T/C [29]: 59.9%
- viability, T/C [30]: 79.5%
- viability, T/C [31]: 49.2%
- viability, T/C [32]: 40.3%
- viability, T/C [33]: 65.2%
- viability, T/C [34]: 68.7%
- viability, T/C [35]: 50.9%
- viability, T/C [36]: 36.4%

SMILES: CCN1CCN(Cc2ccc(Nc3ncc(F)c(-c4cc(F)c5nc(C)n(C(C)C)c5c4)n3)nc2)CC1 + CC(Nc1ccc2c(c1)OCCn1cc(N3C(=O)OCC3C(F)F)nc1-2)C(N)=O
- IC50 (second compound 0.00316 µM): > 1000 nM
- IC50 (second compound 0.01 µM): 672 nM
- IC50 (second compound 0.0316 µM): 528 nM
- IC50 (second compound 0.1 µM): 236 nM
- IC50 (second compound 0.316 µM): 86.9 nM
- IC50 (second compound 1 µM): 4.39 nM
- viability, T/C (second compound 0.00316 µM, first compound 0.00316 µM): 68.8%
- viability, T/C (second compound 0.00316 µM, first compound 0.01 µM): 98.9%
- viability, T/C [1]: 94%
- viability, T/C [2]: 73.7%
- viability, T/C [3]: 59.5%
- viability, T/C [4]: 49.7%
- viability, T/C (second compound 0.01 µM, first compound 0.00316 µM): 106%
- viability, T/C (second compound 0.01 µM, first compound 0.01 µM): 95.8%
- viability, T/C [7]: 89.7%
- viability, T/C [8]: 85.4%
- viability, T/C [9]: 79.9%
- viability, T/C [10]: 35.7%
- viability, T/C (second compound 0.0316 µM, first compound 0.00316 µM): 90.2%
- viability, T/C (second compound 0.0316 µM, first compound 0.01 µM): 85.2%
- viability, T/C [13]: 82%
- viability, T/C [14]: 91.6%
- viability, T/C [15]: 58.5%
- viability, T/C [16]: 39.3%
- viability, T/C (second compound 0.1 µM, first compound 0.00316 µM): 87.8%
- viability, T/C (second compound 0.1 µM, first compound 0.01 µM): 90.8%
- viability, T/C [19]: 73.8%
- viability, T/C [20]: 79%
- viability, T/C [21]: 39.4%
- viability, T/C [22]: 40.8%
- viability, T/C (second compound 0.316 µM, first compound 0.00316 µM): 73.2%
- viability, T/C (second compound 0.316 µM, first compound 0.01 µM): 72.7%
- viability, T/C [25]: 63%
- viability, T/C [26]: 51.1%
- viability, T/C [27]: 31.2%
- viability, T/C [28]: 44.5%
- viability, T/C (second compound 1 µM, first compound 0.00316 µM): 55.3%
- viability, T/C (second compound 1 µM, first compound 0.01 µM): 45.2%
- viability, T/C [31]: 32.2%
- viability, T/C [32]: 48.9%
- viability, T/C [33]: 42.6%
- viability, T/C [34]: 27.8%

SMILES: Cn1ncc(Cl)c1-c1cc(C(=O)NC(CN)Cc2cccc(F)c2)sc1Cl (stereo unspecified) + CC(Nc1ccc2c(c1)OCCn1cc(N3C(=O)OCC3C(F)F)nc1-2)C(N)=O
- IC50 (second compound 0.00316 µM): 4460 nM
- IC50 (second compound 0.01 µM): 3790 nM
- IC50 (second compound 0.0316 µM): 2730 nM
- IC50 (second compound 0.1 µM): 3190 nM
- IC50 (second compound 0.316 µM): 1800 nM
- IC50 (second compound 1 µM): 1730 nM
- viability, T/C [1]: 73.9%
- viability, T/C [2]: 93%
- viability, T/C [3]: 93.9%
- viability, T/C [4]: 99.9%
- viability, T/C [5]: 58.4%
- viability, T/C [6]: 30.5%
- viability, T/C [7]: 86.1%
- viability, T/C [8]: 81.8%
- viability, T/C [9]: 81.5%
- viability, T/C [10]: 80.8%
- viability, T/C [11]: 53.3%
- viability, T/C [12]: 32.1%
- viability, T/C [13]: 111%
- viability, T/C [14]: 82.9%
- viability, T/C [15]: 80.3%
- viability, T/C [16]: 77.8%
- viability, T/C [17]: 43.8%
- viability, T/C [18]: 21.4%
- viability, T/C [19]: 97.4%
- viability, T/C [20]: 94.3%
- viability, T/C [21]: 65.6%
- viability, T/C [22]: 67%
- viability, T/C [23]: 62.3%
- viability, T/C [24]: 16.6%
- viability, T/C [25]: 79%
- viability, T/C [26]: 94.3%
- viability, T/C [27]: 61.5%
- viability, T/C [28]: 55.2%
- viability, T/C [29]: 46.9%
- viability, T/C [30]: 19.8%
- viability, T/C [31]: 42.6%
- viability, T/C [32]: 61.8%
- viability, T/C [33]: 67.2%
- viability, T/C [34]: 56%
- viability, T/C [35]: 42.9%
- viability, T/C [36]: 14.3%
